Measured values: patent US10759817B2, “Gadolinium complex, method for synthesis of the gadolinium complex, and MRI contrast agent including the gadolinium complex” (Kyungpook National University Industry-Academic Cooperation …, priority 2018, dated 2020)

Assay: Relaxibity (r1, r2) measurement by MRI at 1.5 T and 9.4 T
Assay type: physicochemical
Text: In accordance with the present disclosure, the relaxibity (unit mM^−1 s^−1) is obtained using an inversion recovery according to the inversion time (T1). More specifically, signal intensities at varying inversion times T1 are acquired. Then, the signal intensities are subjected to a minimum non-linear fitting (NLF) to obtain the relaxation time (s). Then, the relaxibity (unit mM^−1 s^−1) is obtained using the relaxation time (s) and the concentration (mM) of the contrast agent. The gadolinium complex represented by the Chemical Formula 1 has the relaxibity defined as above which is at least 4 mM^−1 s^−1 not only in the normal magnetic field range of 1.5 T but also in the high magnetic field of 7 T or greater.
The relaxibity for the gadolinium complex GdL^b as obtained above was measured at magnetic field strengths of 1.5 T and 9.4 T respectively as follows.
T1 relaxation time was checked using inversion recovery according to various T1 (inversion times). […] The T2 relaxation time is determined as follows. […] For TEs, mean values of pixels for various spin-echo measurements were calculated using a nonlinear fitting method. Then, the T2 relaxation time was calculated using the spin-echo measurements. The relaxibity (mM^−1s^−1) was calculated as an inverse of a relaxation time (s) for the contrast agent 1 mM. We calculated r1 using the T1 relaxation time and r2 using the T2 relaxation time. […]

In the case of O=C([O-])CN1CCN(CC(=O)[O-])CCN([C@H](CO)[C@H](O)CO)CCN(CC(=O)[O-])CC1.[Gd+3] (racemic) [Gadovist ®, gadobutrol], the “Relaxibity r1” value (magnetic field 1.5 T) is reported as 4.06 mM⁻¹ s⁻¹ and the “Relaxibity r1” value (magnetic field 9.4 T) is reported as 2.96 mM⁻¹ s⁻¹.
